Data reported in PMC8401767, “Spectroscopic Studies of Quinobenzothiazine Derivative in Terms of the In Vitro Interaction with Selected Human Plasma Proteins. Part 1” (Molecules, 2021).
Where a name gives a salt, the structure may show the parent alone.

Experiments:
[1] = test system: T1, α-1-Acid glycoprotein (AGP, orosomucoid); assay: intrinsic protein fluorescence quenching, Klotz plot; format: binding, Homo sapiens; conditions: λex 295 nm (Trp); pH 7.4, 0.05 M phosphate, 298 K; unit misprinted in table, L/mol by b49
T1 construct: gene ORM1
Source text: intrinsic protein fluorescence quenching, Klotz plot on α-1-Acid glycoprotein (AGP, orosomucoid)

[2] = target: T2, Human serum albumin (HSA) (Homo sapiens, UniProt P02768); assay: as above; format: binding; conditions: λex 295 nm (Trp); pH 7.4, 0.05 M phosphate, 298 K; unit misprinted in table, L/mol by b49
T2 construct: gene ALB
Source text: intrinsic protein fluorescence quenching, Klotz plot on Human serum albumin (HSA)

T2 sequence (P02768 25-609): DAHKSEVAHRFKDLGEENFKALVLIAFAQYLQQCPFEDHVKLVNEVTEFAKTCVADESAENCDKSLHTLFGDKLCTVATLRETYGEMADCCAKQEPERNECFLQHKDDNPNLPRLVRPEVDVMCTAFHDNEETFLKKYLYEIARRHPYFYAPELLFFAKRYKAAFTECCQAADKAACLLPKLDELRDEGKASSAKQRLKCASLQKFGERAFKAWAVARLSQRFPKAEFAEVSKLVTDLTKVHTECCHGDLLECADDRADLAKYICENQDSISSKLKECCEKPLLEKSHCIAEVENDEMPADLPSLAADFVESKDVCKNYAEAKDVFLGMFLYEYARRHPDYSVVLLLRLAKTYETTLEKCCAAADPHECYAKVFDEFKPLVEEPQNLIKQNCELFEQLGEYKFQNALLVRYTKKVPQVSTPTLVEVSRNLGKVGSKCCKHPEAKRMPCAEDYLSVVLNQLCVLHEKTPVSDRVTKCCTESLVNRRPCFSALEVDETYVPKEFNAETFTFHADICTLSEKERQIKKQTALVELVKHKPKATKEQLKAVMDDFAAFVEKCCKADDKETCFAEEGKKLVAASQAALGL

## C[n+]1cc2c(c3ccccc31)Nc1ccccc1S2 [Salt1, 5-methyl-12(H)-chino[3,4-b][1,4]benzothiazinium chloride]
[1]
  λex 295 nm / (Ka. 10^4) ±SD * (mol.L^-1): 7.86 ± 0.03 ·10^4
[2]
  λex 295 nm / (Ka. 10^4) ±SD * (mol.L^-1): 2.71 ± 0.01 ·10^4
